The values that follow are results of earlier work, collected in publication PMC5796656 (Journal of the American Chemical Society, 2015).

For this data set the following is noted: ref [26].

Consider `O=C([O-])CN1CCN(CC(=O)[O-])CCN(CC(=O)[O-])CCN(CC(=O)[O-])CC1.[Gd+3]` [GdDOTA], for which the τM was 243 ns.
